Source: ChEMBL document CHEMBL4739710, “Tetrahydropyridopyrazines as modulators of GPR6” (2020)

Target: G-protein coupled receptor 6 (Homo sapiens, UniProt P46095)
Assay: Modulation of GPR6 (unknown origin) expressed in CHO-K1 cells assessed as inhibition of constitutive cAMP activity by HTRF assay
Type: functional, cell-based

Chain of G-protein coupled receptor 6 (P46095 whole entry): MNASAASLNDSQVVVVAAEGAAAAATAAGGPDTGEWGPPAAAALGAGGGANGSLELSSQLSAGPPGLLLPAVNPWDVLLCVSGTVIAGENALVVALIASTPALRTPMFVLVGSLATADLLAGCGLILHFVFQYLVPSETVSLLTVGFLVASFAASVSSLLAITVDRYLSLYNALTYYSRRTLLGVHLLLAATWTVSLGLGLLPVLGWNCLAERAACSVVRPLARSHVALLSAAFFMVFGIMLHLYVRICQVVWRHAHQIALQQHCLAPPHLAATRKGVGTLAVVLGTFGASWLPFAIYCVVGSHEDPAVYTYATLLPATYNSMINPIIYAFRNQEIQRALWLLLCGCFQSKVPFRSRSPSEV

Cc1cc2nc(N[C@@H]3CCOC3)c(N3CCN(Cc4ccc(F)cc4F)CC3)nc2cn1
EC50: 47.9 nM
